Data reported in the NIST ThermoML archive (doi:10.1021/je2005402).
± gives the expanded uncertainty stated by the source.

Settings: Liquid, Ebulliometric method (Recirculating still)

vapor or sublimation pressure (363.25 K)	vapor or sublimation pressure (337.85 K)	Structure (SMILES)
101.32 ± 1.1 kPa	–	COC(=O)OC [dimethyl carbonate]
–	101.32 ± 1.1 kPa	CO [methanol]
